Experimental findings from US20240116850A1, “COMPOSITIONS AND METHODS RELATED TO BICYCLO[2.2.1] HEPTANAMINE-CONTAINING COMPOUNDS” (The Broad Institute, Inc., priority 2020, published 2024) are described below.

One may read the EC50 as the concentration at which the effect is half-maximal. Lower therefore signals greater potency.

In one assay the test system is MUC1-wt. The experiment in a line: High-content imaging assay of MUC1-wt total cytoplasm intensity in P cells. It is filed as cell-based. Conditions: for EC50: MUC1-wt total cytoplasm intensity, P cells, 48 hr incubation; for WT ECMax: MUC1-wt, DMSO = 0, JQ1 (250 nM) = −100% activity. The procedure:
(§1) P cells were seeded 24 hr prior to compound treatment at a density of 12,000 cells/well in 384 well Cell Carrier Ultra plates (6057308, Perkin Elmer), pre-coated with 0.25 mg/mL Synthemax 11 SC Substrate (3535, Corning). Compounds were used at 5 doses (35, 3.5, 0.35, 0.035 and 0.0035 μM) for the primary screen and 10 doses (16, 5.6, 1.8, 0.6, 0.21, 0.07, 0.02, 0.008, 0.002 and 0.0008 μM) for the following screens. The compounds, in two replicates, were transferred from compound source plates to the cell plates using the HighRes Pin Tool. DMSO was used as a negative control and JQ1 (250 nM) (a bromodomain inhibitor) was chosen as a positive control, based on earlier studies showing its potent effect on reducing total MUC1 mRNA levels (data not shown). After 48 hr incubation, cells were fixed for 20 min in 4% PFA (Electron Microscopy Sciences) in PBS, washed twice, then permeabilized (10 min) with 0.5% Triton-X100 (X100-100MVL, Sigma-Aldrich) in PBS and washed once more. Cells were blocked for 10 min at RT with Blocking solution (100 mM Tris HCL pH8; l150 mM NaCL; 5 g/L Blocking Reagent [11096176001, Roche]), then incubated 90 min at RT with one of the following primary antibodies in Roche Blocking solution: 1:500, monoclonal Fab-A-V5H anti-MUC1-fs, AbD22655.2, Bio-Rad; 1:2000, monoclonal mouse anti-MUC1 (214D4), 05-652-KC, Millipore; 1:1000, monoclonal, Rabbit anti-GM130 (D6B1) XP, 12480, Cell signaling technology. The primary antibody cocktail was incubated at RT for 1.5 hr, followed by four PBS wash cycles. The secondary antibody cocktail contained four components that were all prepared at a 1:1000 dilution in the Roche blocking solution and consisted of Alexa Fluor® 488-conjugated AffiniPure F(ab′)2 Fragment Goat anti-Human IgG, 109-546-097, Jackson Immunoresearch; Alexa Fluor® 647-conjugated Goat anti-Rabbit IgG, A-21246, Thermo Fisher Scientific®; Alexa Fluor® 546 Goat anti-mouse IgG, A-21123, Thermo Fisher Scientific® and Hoechst 33342 stain (62249, Thermo Fisher Scientific®). The secondary antibody cocktail was incubated at RT for 45 min, followed by four PBS wash cycles. Finally, plates were sealed with a Plate Loc plate and stored in Liconic incubator at 10° C. until imaging. Following image analysis, three parameters were selected, i) MUC1-fs and ii) MUC1-wt total cytoplasm intensity (averaged per cell) and iii) cell number as was detected by Hoechst 33342 stained nuclei. The levels of MUC1-fs and MUC1-wt found following DMSO and JQ1 were defined as 0 and −100% activity, respectively. The values obtained for all compounds were normalized accordingly. Cell number was normalized to DMSO control.
(§2) The pure enantiomers were profiled in the high-content imaging assay for the ability to reduce the amount of FS MUC1 protein in the cytoplasm (Table 48) following the procedure of Example 4.

The next assay relates to MUC1-fs. The assay is described as follows: High-content imaging assay of MUC1-fs total cytoplasm intensity in P cells. It is filed as cell-based. Conditions: for EC50: MUC1-fs total cytoplasm intensity, P cells, 48 hr incubation; for ECMax: MUC1-fs, DMSO = 0, JQ1 (250 nM) = −100% activity. On the procedure: as §1, §2

Bounds are passed on as bounds.

With `CC(C)(C)[C@@H]1[C@H]2CC[C@H](C2)[C@H]1N.Cl` (racemic) [Compound 115], in the assay on MUC1-wt, the EC50 came to 12.3 µM and the “WT ECMax” value worked out at 71.79%. In the assay with MUC1-fs, the EC50 turned out to be 0.295 µM and the ECMax was −79.02%.

Consider `C[C@@H]1[C@H]2CC[C@H](C2)[C@H]1N.Cl` (single isomer, unassigned) [Compound 104-P1], for which, in the assay on MUC1-wt, the “WT ECMax” value was −13.75%. The ECMax in the assay on MUC1-fs is −47.64%.

In the case of `Cl.N[C@H]1[C@@H]2CC[C@@H](C2)[C@@H]1C1CCCCC1` (single isomer, unassigned) [Compound 119-P1], in the assay on MUC1-wt, the EC50 was more than 32 µM and the “WT ECMax” value is on record as −14.31%. Moreover, in the assay on MUC1-fs, the EC50 is more than 32 µM and the ECMax was −14.14%.

As to `Cl.N[C@@H]1[C@@H]2CC[C@@H](C2)[C@H]1C1CCCCC1` (single isomer, unassigned) [Compound 118-P1], in the assay on MUC1-wt, the EC50 was more than 32 µM and the “WT ECMax” value is recorded as 9.54%. In the assay with MUC1-fs, the concentration for a half-maximal effect (EC50) was more than 32 µM and the ECMax was −7.97%.

For the compound `Cl.N[C@@H]1[C@H]2CC[C@H](C2)[C@H]1c1ccccc1` (single isomer, unassigned) [Compound 121-P2], in the assay on MUC1-wt, the 50% effective concentration (EC50) is more than 32 µM and the “WT ECMax” value was 7.35%. In the assay with MUC1-fs, the EC50 was more than 32 µM and the ECMax is given as −9.03%.

In the case of `Cl.N[C@@H]1[C@@H]2CC[C@@H](C2)[C@H]1C1CC1` (racemic) [Compound 109], in the assay on MUC1-wt, the EC50 was more than 32 µM and the “WT ECMax” value was −12.5%. For the same compound, in the assay on MUC1-fs, a half-maximal effect (EC50) was put at 0.45 µM and the ECMax is given as −73.56%.

As to `Cl.N[C@@H]1[C@H]2CC[C@H](C2)[C@H]1C1CC1` (single isomer, unassigned) [Compound 110-P2], in the assay on MUC1-wt, the “WT ECMax” value is −12.31%. The ECMax in the assay on MUC1-fs is given as −47.09%.

As to `CC(C)C[C@@H]1[C@H]2CC[C@H](C2)[C@H]1N.Cl` (single isomer, unassigned) [Compound 111-P1], in the assay with MUC1-wt, the EC50 was more than 32 µM and the “WT ECMax” value is recorded as −10.33%. Further, in the assay with MUC1-fs, the EC50 was more than 32 µM and the ECMax is on record as −12.73%.

Regarding `CCC[C@@H]1[C@H]2CC[C@H](C2)[C@H]1N.Cl` (racemic) [Compound 107-rac], in the assay with MUC1-wt, the EC50 was more than 32 µM and the “WT ECMax” value came to 8.64%. Also, in the assay on MUC1-fs, the EC50 is more than 32 µM and the ECMax amounted to 10.08%.

Turning to `Cl.N[C@H]1[C@H]2CC[C@H](C2)[C@@H]1C1CC1` (single isomer, unassigned) [Compound 109-P2], in the assay with MUC1-wt, the EC50 is more than 32 µM and the “WT ECMax” value is given as −14.32%. Further, in the assay with MUC1-fs, the EC50 was 0.52 µM and the ECMax is given as −74.31%.

On to `Cl.N[C@H]1[C@@H]2CC[C@@H](C2)[C@@H]1C1CC1` (single isomer, unassigned) [Compound 110-P1, (1R,2S,3S,4S)-3-cyclopropylbicyclo[2.2.1]heptan-2-amine hydrochloride], for which the results for the EC50 in the assay on MUC1-wt and with MUC1-fs were more than 32 µM and 8.49 µM, respectively.

For the compound `CCC[C@@H]1[C@H]2CC[C@H](C2)[C@H]1N.Cl` [Compound 107-P1], in the assay on MUC1-wt, the EC50 was more than 32 µM and the “WT ECMax” value worked out at 14.07%. In addition, in the assay on MUC1-fs, the EC50 is 25.8 µM and the ECMax is −15.72%.

In the case of `C[C@@H]1[C@H]2CC[C@H](C2)[C@H]1N.Cl` (single isomer, unassigned) [Compound 104-P2, hydrochloride], the figures for the EC50 in the assay on MUC1-wt and with MUC1-fs were more than 32 µM and 4.5 µM, respectively.

Regarding `CCC[C@H]1[C@H]2CC[C@H](C2)[C@@H]1N.Cl` (racemic) [Compound 108-rac], in the assay with MUC1-wt, the EC50 is more than 32 µM and the “WT ECMax” value was −4.32%. Also, in the assay with MUC1-fs, the EC50 is more than 32 µM and the ECMax is −8.01%.

Take `C[C@@H]1[C@H]2CC[C@H](C2)[C@H]1N.Cl` (single isomer, unassigned) [Compound 104-P2]: in the assay on MUC1-wt, the “WT ECMax” value is −14.86%. Also, in the assay on MUC1-fs, the ECMax is given as −78.16%.

On to `Cl.N[C@@H]1[C@@H]2CC[C@@H](C2)[C@H]1C1CC1` (single isomer, unassigned) [Compound 109-P1], for which, in the assay on MUC1-wt, the EC50 is more than 32 µM and the “WT ECMax” value stood at 9.06%. Moreover, in the assay with MUC1-fs, the EC50 was more than 32 µM and the ECMax was −32.29%.

As to `Cl.N[C@@H]1[C@H]2CC[C@H](C2)[C@H]1C1CCCCC1` (single isomer, unassigned) [Compound 119-P2], in the assay with MUC1-wt, the EC50 was more than 32 µM and the “WT ECMax” value stood at 0%. For the same compound, in the assay on MUC1-fs, the EC50 was more than 32 µM and the ECMax amounted to 0%.

For the compound `Cl.N[C@@H]1[C@@H]2CC[C@@H](C2)[C@H]1c1ccccc1` (racemic) [Compound 120], in the assay on MUC1-wt, the EC50 is more than 32 µM and the “WT ECMax” value is 15.88%. For the same compound, in the assay on MUC1-fs, the EC50 was more than 32 µM and the ECMax is given as −27.71%.

On to `Cl.N[C@H]1[C@@H]2CC[C@@H](C2)[C@@H]1C1CCCCC1` (racemic) [Compound 119], for which, in the assay with MUC1-wt, the EC50 is more than 32 µM and the “WT ECMax” value stood at 14.48%. In the assay on MUC1-fs, the EC50 was more than 32 µM and the ECMax stood at 20.39%.

For `CCC[C@@H]1[C@@H]2CC[C@@H](C2)[C@H]1N.Cl` [Compound 108-P2], in the assay with MUC1-wt, the EC50 was more than 32 µM and the “WT ECMax” value was found to be 16.1%. In the assay with MUC1-fs, the EC50 was determined as 5.6 µM and the ECMax is recorded as 22.43%.

Regarding `CC(C)C[C@H]1[C@H]2CC[C@H](C2)[C@@H]1N.Cl` (racemic) [Compound 112], in the assay on MUC1-wt, the EC50 was more than 32 µM and the “WT ECMax” value is listed as −8.84%. In the assay on MUC1-fs, the EC50 was more than 32 µM and the ECMax came out at 18.48%.

Consider `C[C@@H]1[C@H]2CC[C@H](C2)[C@H]1N.Cl` (single isomer, unassigned) [Compound 104-P1, (1R,2R,3R,4S)-3-methylbicyclo[2.2.1]heptan-2-amine hydrochloride], for which the values for the EC50 with MUC1-wt and in the assay with MUC1-fs were more than 32 µM and 19.6 µM, respectively.

Consider `CC(C)C[C@H]1[C@@H]2CC[C@@H](C2)[C@@H]1N.Cl` (single isomer, unassigned) [Compound 111-P2], for which, in the assay on MUC1-wt, the EC50 was more than 32 µM and the “WT ECMax” value was −9.06%. In the assay with MUC1-fs, the EC50 was more than 32 µM and the ECMax was −11.51%.

As to `Cl.N[C@H]1[C@@H]2CC[C@@H](C2)[C@@H]1C1CC1` (single isomer, unassigned) [Compound 110-P1], in the assay on MUC1-wt, the “WT ECMax” value is on record as −8.95%. The ECMax in the assay on MUC1-fs was −50.96%.
